The values below come from patent US5602099A, “δ opioid receptor antagonists” (Aktiebolaget Astra, priority 1993, dated 1997).

In experiment [1] the target is T1, δ opioid receptors (Mus musculus, UniProt P32300).
T1 construct: Bioassays Using Isolated Organ Preparations; from tissue; host or cells: mouse vas deferens (isolated organ)
The experiment in a line: Mouse vas deferens (MVD) bioassay, antagonism of electrically evoked contraction inhibition by δ-selective agonists. Type of experiment: tissue-based. Particulars: MVD assay, means of 3-8 determinations. An excerpt:
(§1) a) Biosassys based on inhibition of electrically evoked contractions of the mouse vas deferens (MVD) and of the guinea pig ileum (GPI). In the GPI assay the opioid effect is primarily mediated by μ opioid receptors, whereas in the MVD assay the inhibition of the contractions is mostly due to interaction with δ opioid receptors.
(§2) The GPI and MVD bioassays were carded out as reported in P. W. Schiller et al., Biochem. Biophys. Res. Commun 85, 1332-1338 (1978) and J. Di Maio et al., J. Med. Chem. 25, 1432-1438 (1982). A log dose-response curve was determind with [Leu^5 ]enkephalin as standard for each ileum and vas preparation, and IC50 values of the compounds being tested were normalized according to A. A Waterfield et al., Eur. J. Pharmacol. 58, 11-18 (1979). […] These determinations were made with the MVD assay, using three different δ-selective agonists ([Leu^5 ] enkephalin, DPDPE and [D-Ala^2 ]deltorphin I].

Experiment [2] deals with T2, μ opioid receptors (Cavia porcellus, UniProt P97266). The experiment in a line: Guinea pig ileum (GPI) bioassay, inhibition of electrically evoked contractions. Type of experiment: cell-based. Particulars: agonist potency.
T2 sequence (P97266 whole entry, looked up): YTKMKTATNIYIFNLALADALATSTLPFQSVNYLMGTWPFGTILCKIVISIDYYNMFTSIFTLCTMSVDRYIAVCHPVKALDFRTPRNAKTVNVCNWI
Text: as §1, §2

Experiment [3] deals with T3, μ opioid receptor (Rattus norvegicus, UniProt P33535).
T3 construct: Male Sprague-Dawley rats (300-350 g) from the Canadian Breeding Laboratories were decapitated and after removal of the cerebellum the brains were homogenized; from tissue; host or cells: rat brain (without cerebellum) membranes, male Sprague-Dawley
T3 sequence (P33535 whole entry): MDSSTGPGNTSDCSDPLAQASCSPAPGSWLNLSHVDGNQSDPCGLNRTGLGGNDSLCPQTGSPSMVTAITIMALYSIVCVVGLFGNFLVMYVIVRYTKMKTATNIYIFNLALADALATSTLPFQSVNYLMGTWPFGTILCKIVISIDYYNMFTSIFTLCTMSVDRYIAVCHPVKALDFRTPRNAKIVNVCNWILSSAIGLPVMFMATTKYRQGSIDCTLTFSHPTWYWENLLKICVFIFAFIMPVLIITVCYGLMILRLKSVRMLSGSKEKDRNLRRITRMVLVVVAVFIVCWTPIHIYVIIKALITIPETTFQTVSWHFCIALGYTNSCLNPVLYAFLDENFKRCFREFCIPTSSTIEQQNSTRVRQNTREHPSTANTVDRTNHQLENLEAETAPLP
The experiment in a line: μ opioid receptor binding assay, displacement of [3H]DAMGO from rat brain membranes. An excerpt:
(§3) In the case of κ-ligands guinea pig brain homogenates were used, since the relative proportion of κ-binding sites is higher in guinea pig brain than in rat brain. The experimental procedure being used in our laboratory represents a modified version of the binding assay described by Pasternak et al. (Mol. Pharmacol. 11, 340-351, (1975)). Male Sprague-Dawley rats (300-350 g) from the Canadian Breeding Laboratories were decapitated and after removal of the cerebellum the brains were homogenized in 30 volumes of ice-cold standard buffer (50 mM Tris-HCl, pH 7.7). After centrifugation at 30,000×g for 30 min at 4° C. the membranes were reconstituted in the original volume of standard buffer and incubated for 30 min at 37° C. (to realease bound endogenous ligands). […] The incubation was terminated by filtration through Batman GF/B filters under vacuum at 4° C. Following two washings with 5 ml portions of ice-cold standard buffer the filters were transferred to scintillation vials and treated with 1 ml Protosol (New England Nuclear) for 30 min prior to the addition of 0.5 ml acetic acid and 10 ml Aquasol (New England Nuclear). After shaking for 30 min the vials were counted at an efficiency of 40-45%. All experiments were performed in duplicates and repeated at least three times. […] Values of half-maximal inhibition (IC50) of specific binding were obtained graphically from semilogarithmic plots. From the measured IC50-values, binding inhibition constants (Ki) were then calculated based on Cheng and Prusoff's equation (Biochem, Pharmacol. 22, 3099-3102 (1973)). Ratios of the Ki -values in the μ-, δ- and κ-representative binding assays are a measure of the receptor selectivety of the compound under investigation (e.g. Ki^μ /Ki^δ indicates the selectivity for δ-receptors versus μ-receptors).
For orientation: Loss of bound radioactivity is the signal in a displacement assay; it reports binding, not function.

In experiment [4] the target is T4, δ opioid receptor (Rattus norvegicus, UniProt P33533).
T4 construct: Male Sprague-Dawley rats (300-350 g) from the Canadian Breeding Laboratories were decapitated and after removal of the cerebellum the brains were homogenized; from tissue; host or cells: rat brain (without cerebellum) membranes, male Sprague-Dawley
T4 sequence (P33533 whole entry): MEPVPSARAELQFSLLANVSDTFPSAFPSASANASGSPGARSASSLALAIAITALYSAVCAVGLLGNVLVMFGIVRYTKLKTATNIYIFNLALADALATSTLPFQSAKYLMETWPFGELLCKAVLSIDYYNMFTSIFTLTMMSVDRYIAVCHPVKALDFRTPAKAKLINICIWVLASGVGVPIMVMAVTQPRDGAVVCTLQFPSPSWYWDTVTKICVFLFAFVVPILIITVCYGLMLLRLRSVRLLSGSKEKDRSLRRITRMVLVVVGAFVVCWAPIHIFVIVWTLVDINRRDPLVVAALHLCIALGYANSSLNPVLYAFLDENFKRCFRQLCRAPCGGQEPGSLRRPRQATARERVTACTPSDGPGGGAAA
As to the kind of experiment: δ opioid receptor binding assay, displacement of δ-selective radioligand from rat brain membranes. Particulars: for Ki^μ /Ki^δ: δ-selectivity ratio.
Text: as §3

The target of experiment [5] is T2, μ opioid receptors. Particulars: literature value; cited from earlier work.
Where [6] appears, read: Ke (nM) against DPDPE, δ agonist DPDPE.
Where [7] appears, read: Ke (nM) against [D-Ala2]deltorphin I, δ agonist [D-Ala2]deltorphin I.
[8] abbreviates: Ke (nM) against [Leu5]Enkephalin, δ agonist [Leu5]enkephalin.
Where [9] appears, read: rat brain membranes, means of 3 determinations, read-out: Ki^μ.
Setting [10] is: δ agonist DPDPE, read-out: Ke (nM) against DPDPE.
[11] abbreviates: δ agonist [D-Ala2]deltorphin I, read-out: Ke (nM) against [D-Ala2]deltorphin I.
The mark [12] stands for this setting: δ agonist [Leu5]enkephalin, read-out: Ke (nM) against [Leu5]Enkephalin.
Setting [13] is: rat brain membranes, means of 3 determinations, read-out: Ki^.xi.

Read-outs that look alike come from different tables or passages of the source. Peptide text beside a SMILES is read from it.

T1 sequence (P32300 whole entry): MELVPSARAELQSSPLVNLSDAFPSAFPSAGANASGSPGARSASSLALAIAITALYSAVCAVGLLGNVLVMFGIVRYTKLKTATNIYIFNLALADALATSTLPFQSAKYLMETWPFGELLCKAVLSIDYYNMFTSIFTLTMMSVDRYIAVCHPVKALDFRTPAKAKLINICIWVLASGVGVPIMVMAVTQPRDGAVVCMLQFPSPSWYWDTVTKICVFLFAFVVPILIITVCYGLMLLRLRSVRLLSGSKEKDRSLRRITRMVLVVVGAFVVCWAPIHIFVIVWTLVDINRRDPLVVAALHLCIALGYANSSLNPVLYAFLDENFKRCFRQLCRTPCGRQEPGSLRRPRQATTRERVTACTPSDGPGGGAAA

Regarding `Cc1cc(O)cc(C)c1C[C@H](N)C(=O)N1Cc2ccccc2C[C@H]1CN[C@@H](Cc1ccccc1)C(=O)N[C@@H](Cc1ccccc1)C(N)=O` [HDmtTic.psi.[CH2NH]PhePheNH2, H-Dmt-Tic.PSI.[CH2 --NH]Phe-Phe-NH2], the results for the Kb in experiment [1] (setting [6]), in experiment [1] (setting [7]) and in experiment [1] (setting [8]) were 0.42 nM, 0.486 nM and 0.47 nM, respectively. The IC50 (commonly the concentration that inhibits the measured activity by half) in experiment [2] was 7.71 nM.

In the case of `N[C@@H](Cc1ccc(O)cc1)C(=O)N1Cc2ccccc2C[C@H]1CN[C@@H](Cc1ccccc1)C(=O)O` [HTyrTic-.psi.[CH2NH]PheOH, H-Tyr-Tic.PSI.[CH2 -NH]Phe-OH], the values for the Ki in experiment [3] (setting [9]) and in experiment [4] (setting [13]) were 10.8 µM and 1.94 nM, respectively. Besides, the Kb worked out at 9.06 nM in experiment [1] (setting [10]), 8.24 nM in experiment [1] (setting [11]) and 9.12 nM in experiment [1] (setting [12]).

With `CN(C[C@@H]1Cc2ccccc2CN1C(=O)[C@@H](N)Cc1ccc(O)cc1)[C@@H](Cc1ccccc1)C(=O)N[C@@H](Cc1ccccc1)C(=O)O` [HTyrTic.psi.[CH2NCH3]PhePheOH, H-Tyr-Tic.PSI.[CH2 --NCH3 ]Phe-Phe-OH], the Ki (usually the dissociation constant of the complex between target and ligand, obtained from inhibition or displacement) in experiment [3] (setting [9]) is 13.4 µM; in experiment [4] (setting [13]), 0.842 nM. The Kb was 4.76 nM in experiment [1] (setting [10]), 2.89 nM in experiment [1] (setting [11]) and 6.28 nM in experiment [1] (setting [12]).

Turning to `N[C@@H](Cc1ccc(O)cc1)C(=O)N1Cc2ccccc2C[C@H]1C(=O)N[C@@H](CCc1ccccc1)C(=O)N[C@@H](Cc1ccccc1)C(=O)O` [HTyrTicHfePheOH, H-Tyr-Tic-Hfe-Phe-OH] (HELM PEPTIDE1{Y.[Tic].[O=C([C@H](CCc1ccccc1)N[*:1])[*:2]].F}$$$$V2.0), the inhibition constant Ki in experiment [3] turned out to be 1.99 µM; in experiment [4] it was 0.277 nM. Besides, the Kb in experiment [1] (setting [6]) was 0.609 nM; in experiment [1] (setting [7]) it was 0.408 nM; in experiment [1] (setting [8]), 1.23 nM. Further, the “Ki^μ /Ki^δ” value in experiment [4] was found to be 7180.

With `N[C@@H](Cc1ccc(O)cc1)C(=O)N1Cc2ccccc2C[C@H]1C(=O)N[C@@H](Cc1c[nH]cn1)C(=O)N[C@@H](Cc1ccccc1)C(=O)O` [HTyrTicHisPheOH, H-Tyr-Tic-His-Phe-OH] (HELM PEPTIDE1{Y.[Tic].H.F}$$$$V2.0), the values for the Ki in experiment [3] and in experiment [4] were 17 µM and 1.48 nM, respectively. The results for the Kb in experiment [1] (setting [6]), in experiment [1] (setting [7]) and in experiment [1] (setting [8]) were 18.2 nM, 18.7 nM and 20.1 nM, respectively. Further, in experiment [4], the “Ki^μ /Ki^δ” value is 11500.

In the case of `N[C@@H](Cc1ccc(O)cc1)C(=O)N1Cc2ccccc2C[C@H]1C(=O)N[C@@H](Cc1ccccc1)C(=O)O` [HTyrTicPheOH, H-Tyr-Tic-Phe-OH] (HELM PEPTIDE1{Y.[Tic].F}$$$$V2.0), the Ki turned out to be 1.28 µM in experiment [3] (setting [9]) and 9.07 nM in experiment [4] (setting [13]). Moreover, the Kb in experiment [1] (setting [6]) is 16.1 nM; in experiment [1] (setting [7]) it was 12.6 nM; in experiment [1] (setting [8]), 11.7 nM. Further, in experiment [4], the “Ki^μ /Ki^δ” value came out at 141.

As to `NC(=O)[C@H](Cc1ccccc1)NC(=O)[C@H](Cc1ccccc1)NC(=O)[C@@H]1Cc2ccccc2CN1C(=O)[C@@H](N)Cc1ccc(O)cc1` [HTyrTicPhePheNH2, H-Tyr-Tic-Phe-Phe-NH2] (HELM PEPTIDE1{Y.[Tic].F.F.[am]}$$$$V2.0), the results for the Ki in experiment [3] (setting [9]) and in experiment [4] (setting [13]) were 0.0788 µM and 3 nM, respectively. Further, the Kb in experiment [1] (setting [7]) was 14.4 nM; in experiment [1] (setting [8]) it was 15.7 nM; in experiment [1] (setting [10]), 18 nM.

On to `NC(=O)[C@H](CO)NC(=O)[C@@H]1CCCN1C(=O)[C@H](Cc1ccc(O)cc1)NC(=O)[C@H](Cc1ccccc1)NC(=O)[C@H](Cc1ccccc1)NC(=O)[C@@H]1Cc2ccccc2CN1C(=O)[C@@H](N)Cc1ccc(O)cc1` [HTyrTicPhePheTyrProSerNH2, H-Tyr-Tic-Phe-Phe-Tyr-Pro-Ser-NH2] (HELM PEPTIDE1{Y.[Tic].F.F.Y.P.S.[am]}$$$$V2.0), for which the Ki is 0.658 ± 0.136 µM in experiment [3] and 0.9 nM in experiment [4]. Further, the Kb is 4.63 nM in experiment [1] (setting [6]), 3.9 nM in experiment [1] (setting [7]) and 4.78 nM in experiment [1] (setting [8]). In addition, in experiment [4], the “Ki^μ /Ki^δ” value was determined as 731.

`CC(C)[C@H](NC(=O)[C@H](Cc1ccccc1)NC(=O)[C@H](Cc1ccccc1)NC(=O)[C@@H]1Cc2ccccc2CN1C(=O)[C@@H](N)Cc1ccc(O)cc1)C(=O)N[C@H](C(=O)NCC(N)=O)C(C)C` [HTyrTicPhePheValValGlyNH2, H-Tyr-Tic-Phe-Phe-Val-Val-Gly-NH2] (HELM PEPTIDE1{Y.[Tic].F.F.V.V.G.[am]}$$$$V2.0): the results for the Ki in experiment [3] and in experiment [4] were 3.29 µM and 1.43 nM, respectively. Moreover, the Kb was found to be 6.36 nM in experiment [1] (setting [6]), 4.96 nM in experiment [1] (setting [7]) and 6.48 nM in experiment [1] (setting [8]). Besides, in experiment [4], the “Ki^μ /Ki^δ” value was determined as 2300.

As to `N[C@@H](Cc1ccc(O)cc1)C(=O)N1Cc2ccccc2C[C@H]1C(=O)N[C@H](C(=O)N[C@@H](Cc1ccccc1)C(=O)O)c1ccccc1` [HTyrTicPhgPheOH, H-Tyr-Tic-Phg-Phe-OH] (HELM PEPTIDE1{Y.[Tic].[Phg].F}$$$$V2.0), the Ki in experiment [3] is 29 µM; in experiment [4] it was 3.01 nM. The Kb in experiment [1] (setting [6]) was found to be 21.5 nM; in experiment [1] (setting [7]) it was 8.31 nM; in experiment [1] (setting [8]) it was 13.8 nM. In addition, the “Ki^μ /Ki^δ” value in experiment [4] stood at 9630.

For `Oc1ccc2c3c1O[C@H]1c4[nH]c5ccccc5c4C[C@@]4(O)[C@@H](C2)N(CC2CC2)CC[C@]314` [Naltrindole, naltrindole, reference compound], the Kb stood at 0.85 nM in experiment [1] (setting [8]), 0.632 nM in experiment [1] (setting [10]) and 0.636 nM in experiment [1] (setting [11]). In addition, the “Ke (μ antagonist) in the guinea pig ileum (GPI) assay” value in experiment [5] was 29 nM.

Regarding `CCCCCCN[C@@H](Cc1ccc(O)cc1)C(=O)N1Cc2ccccc2C[C@H]1C(=O)N[C@@H](Cc1ccccc1)C(=O)N[C@@H](Cc1ccccc1)C(=O)O` [Tyr(N^α Hex)-TicPhePheOH, Tyr(N^α Hex)-Tic-Phe-Phe-OH], the Ki came to 1.08 µM in experiment [3] and 0.951 nM in experiment [4]. Further, the Kb in experiment [1] (setting [6]) was 4.28 nM; in experiment [1] (setting [7]) it was 10.6 nM; in experiment [1] (setting [8]) it was 9.37 nM.

In the case of `CN[C@@H](Cc1ccc(O)cc1)C(=O)N1Cc2ccccc2C[C@H]1C(=O)N[C@@H](Cc1ccccc1)C(=O)N[C@@H](Cc1ccccc1)C(=O)O` [Tyr(N^α Me)-TicPhePheOH, Tyr(N^α Me)-Tic-Phe-Phe-OH] (HELM PEPTIDE1{[meY].[Tic].F.F}$$$$V2.0), the Ki in experiment [3] was 13.4 µM; in experiment [4], 1.29 nM. Also, the values for the Kb in experiment [1] (setting [6]), in experiment [1] (setting [7]) and in experiment [1] (setting [8]) were 1.22 nM, 0.436 nM and 1.01 nM, respectively.
